Source: a melting point compilation (Tetko et al.; mined from patent text by program, amines drawn as free bases though some values may be those of a salt)

| melting point [°C] | SMILES |
| --- | --- |
| 108 to 110 | COC(=O)c1ncsc1CCNC(=O)OCc1ccccc1 |
| 93 to 95 | COc1cc(OC)c2c(=O)[nH]c(-c3ccc(OCCNC(C)C)c(-c4ccc(S(C)=O)cc4)n3)nc2c1 (centres undefined) |
| 87 | CCCCCCCNC(=O)Nc1cc(N(C)C)ccc1C(=O)NC1CCN(C(c2ccccc2)c2ccccc2)CC1 |
| 146 to 147 | Cc1c(NC(=O)c2ccc(CC(=O)C(C)C)cc2)ccc2cc(CN3CCCC3)cnc12 |
| 193 to 195 | COCCCN1C(=O)COc2ccc(Br)cc21 |
| 134 to 135 | CC/C=C\Cn1c(=O)sc2c(N)ncnc21 |
| 148 to 149 | CCOC(=O)C1=C(C)Nc2snc(CCN3CCN(c4ccccc4)CC3)c2C1c1cccc([N+](=O)[O-])c1 (single isomer, unassigned; (+)) |
| 85 to 86 | CC(C)(C)OC(=O)NC(CO)c1ccc(F)cc1 (centres undefined) |
| 203 to 208 | COc1cc2ccc(C(=N)NO)cc2cc1OC |
| > 260 | Oc1nc2ccc(Cl)cc2nc1O |
| 111 to 112 | COC(=O)C1CC(=O)C(CC(=O)O)C1C[N+](=O)[O-] (single isomer, unassigned; (-)) |
| 246 to 247 | COC(=O)c1cc2cc(OC)c(OC)cc2c(-c2ccnc(Cl)c2)n1 |
| > 285 | CC(=O)NC1CCN(Cc2cnc3cc(NC(=O)c4ccc(-c5ccc(Cl)cc5)cc4)ccc3c2)C1 (centres undefined) |
| 109 to 117 | Nc1nc(NC2CCCCC2)nc2c1ncn2C1CCCCC1 |
| 115 to 117 | CCOC(=O)c1cc2c(OC[C@@H](O)CN3CCC(c4ccc5ccccc5c4)CC3)cccc2[nH]1 |
| 141 to 142 | CCOC(=O)C(=O)CC(=O)c1cn(Cc2ccccc2)c2ccccc2c1=O |
| 53 to 55 | CCOCCCOC(C)Cc1ccc(-c2ccc(O)cc2)cc1 (single isomer, unassigned; (-)) |
| > 200 | CC(=O)OC[C@H]1[C@H](O)[C@@H](O)[C@@H](O)[C@@H]2NC(=O)c3cc4c(cc3[C@@H]12)OCO4 |
| 300 | Cc1nc2cc3c(cc2[nH]1)[nH]c(=O)n3C |
| 194 to 196 | COc1ccc2c(c1)Sc1cc(OC)ccc1N2 |

| melting point [°C] | SMILES |
| --- | --- |
| 87.5 to 89 | CC1(C)OC(C=Cc2ccccn2)=CC1=O |
| 127 to 129 | Brc1csc2ncnc(NCc3ccccn3)c12 |
| 154 to 155 | CCOC(=O)c1sc(NC(=O)c2cc(C(F)(F)F)cc(C(F)(F)F)c2)nc1C(F)(F)C(F)(F)F |
| 89 to 91 | COC(=O)CCCc1nc(-c2ccc(F)cc2)c(-c2ccc(S(C)(=O)=O)cc2)o1 |
| 109 to 112 | Cc1nc2ccc3c(c2o1)OC(CN1CCCCC1)CO3 (centres undefined) |
| 47 to 48 | CCCCc1cc(CCCC)n2ncc(Br)c2n1 |
| 140 to 141 | COC(=O)C(Cl)=Cc1cc(-n2ncc(C(F)(F)F)cc2=O)ccc1Cl |
| 222 to 224 | COc1cc2ncc(C#N)c(Nc3ccc(C)c(O)c3)c2cc1OC |
| 113 to 115 | CC(=O)NCC=C1CCc2ccc3nc(CCCCc4ccccc4)oc3c21 |
| 214 to 216 | O=C(Cc1c(-c2cccnc2)c2cc(CN3CCN(c4ccccc4)CC3)c(Cl)cc2oc1=O)Nc1ccc(Cl)cc1C(F)(F)F |
| 153 to 155 | COC(=O)c1cccc2[nH]ncc12 |
| 75 to 78 | COc1ccc2c(c1OC)CN(Cc1ccccc1)CCc1cc3c(cc1CC2)OCO3 |
| 170 to 172 | O=c1[nH][nH]c(=O)c2c(O)c3ccc(C(F)(F)F)cc3nc12 |
| 152 to 154 | CCCCCCCCCCCCc1nnn(C(CCCC)C(=O)Nc2c(OC)cc(OC)cc2OC)n1 (centres undefined) |
| 65 to 67 | COC1=C(OCCCCCc2ccccc2)C2OC2(C=O)C=C1 (centres undefined) |
| 173 to 174 | Cc1cc(-c2cccc([N+](=O)[O-])c2)nnc1N(C)N |
| 190 to 191 | CCCn1nc2c(N)nc3ccccc3c2c1CC(C)(C)NC(=O)C1CCCCC1 |
| 216 to 218 | CCOC(=O)C1=C(NC(C)=O)Oc2cc(O)ccc2C1c1cccnc1 (centres undefined) |
| 149 to 150 | COc1cccc(CN2CCN(CCCOc3ccc4c(C)cc(=O)[nH]c4c3)CC2)c1 |
| 138 to 140 | Clc1ccc(C2=NCCc3c2ccc2ccccc32)cc1 |

More lines, now with the values behind:

| SMILES | melting point [°C] |
| --- | --- |
| CNc1ncnc2c1ncn2C1OC(CO)C(O)C1O (centres undefined) | 202 |
| O=C(Cc1c(-c2ccccc2)c2cc(CN3CCNCC3)c(Cl)cc2oc1=O)Nc1ccc(Cl)cc1C(F)(F)F | 237 to 242 |
| CCCCCCOC(=O)OC(C)OC1=C(C(=O)Nc2ccccn2)N(C)S(=O)(=O)c2ccccc21 (centres undefined) | 86 to 87 |
| CCCCOc1cc(/C=C(\OCC)C(=O)O)ccc1OCCc1ccc(NC(=O)CC)cc1 | 164 |
| CCCCCCCCCCCCCCCCCC1OC1C (centres undefined) | 40 |
| CC(C)Cn1c(SCc2ccccn2)nc2ccccc2c1=O | 91.7 to 93.2 |
| Cc1[nH]c2ccccc2c1CCN1CCN(C(c2ccc(F)cc2)c2ccc(F)cc2)CC1 | 65 to 73 |
| CCN(CC)C(=O)c1cc(C(C)(C)C)c(OC(=O)c2cc(C(C)(C)C)c(O)c(C(C)(C)C)c2)c(C(C)(C)C)c1 | 203 to 205 |
| Nc1cccc(-c2ccc(CCN3CCN(c4nc(-c5ccccc5)cs4)CC3)cc2)n1 | 158 to 161 |
| CC(C)(C)c1ccc(Nc2cccc(Br)n2)c(N)c1 | 125 to 128 |
| Cc1cc(C)c2c(c1C)OC(C)(C)C2c1ccc(N(C)C)cc1 (centres undefined) | 124 to 125 |
| O=C(Oc1cc2c(c3ccccc13)Nc1ccccc1S2)c1ccccc1 | 171 |
| Cc1c(Nc2c(C#N)cncc2-c2cc3cc(CN4CCCCC4)ccc3s2)ccc2[nH]ccc12 | 174 to 175 |
| O=C(CCl)N[C@H]1CC[C@H](O)CC1 | 149 to 151 |
| CCOC(=O)c1cn(C)c2cnc3c(F)c(Cl)c(F)cc3c2c1=O | 293 |
| CCN1C(=O)C(C)(C)C(=O)N(C)c2cc(CN(CCn3cc(C)c4sccc4c3=O)Cc3cnccc3C)ccc21 | 174 to 175 |
| CCN1C[C@@H](O)[C@H](NC2CCCCC2)C1 (relative stereo) | 68 to 71 |
| NCc1ccc(C2CCN(c3nc4c(cc3F)c(=O)c(C(=O)O)cn4C3CC3)C2)cc1 (centres undefined) | 268 to 272 |
| CCCCN(Cc1ccc(-c2ccccc2-c2nnn[nH]2)cc1)c1ncc(C(=O)O)s1 | 183 to 184 |
| CN(CCOc1ccc(CC(Sc2ccc(Cl)cc2)C(=O)O)cc1)c1nc2ccccc2o1 (centres undefined) | 156 to 157 |
| O=C(Nc1ccc(I)cc1)c1ccncc1 | 245 to 250 |
| O=C(O)[C@@H]1CCCC[C@H]1C(=O)CCS (relative stereo) | 71 to 74 |
| NC(=S)NN=CC=Cc1ccccc1 | 137 to 139 |
| CC(=O)N1CCCC2=C1CCc1cccc(Cl)c12 | 117 to 118 |
| O=C(c1ccc(F)cc1)C1CCN(CCN2C(=O)Nc3ccc(Cl)cc3C2c2ccccc2)CC1 (centres undefined) | 196 |
| CC(=O)c1ccccc1N(C)S(C)(=O)=O | 98 to 99 |
| Cc1cc(-c2[nH]c3ccc(C#N)cc3c2C)cc(C)c1O | 185 to 186 |
| COC(=O)C1CC(C#N)(c2ccc(Cl)cc2)CCC1=O (centres undefined) | 141 to 144 |
| CC1(C)CC(OC(=O)Nc2ccccc2)CC(C)(C)N1CC(O)c1ccccc1 (centres undefined) | 186 to 187 |
